Read-outs that look alike come from different tables or passages of the source. Where a SMILES comes first, the peptide text is derived from it. Bridges are numbered along the chain shown (N, C = ends). [ ]: non-standard residue; d: D form. ξ: configuration not given here. Trp(1-CH2COOH) = N[C@@H](Cc1cn(CC(=O)O)c2ccccc12)C(=O)O; Phe(3,4,5-F3) = N[C@@H](Cc1cc(F)c(F)c(F)c1)C(=O)O; d(cisHyp) = O=C(O)[C@H]1C[C@@H](O)CN1; Bta = N[C@@H](Cc1csc2ccccc12)C(=O)O; NMeY = CN[C@@H](Cc1ccc(O)cc1)C(=O)O; Hyp = O=C(O)[C@@H]1C[C@@H](O)CN1; NMeF = CN[C@@H](Cc1ccccc1)C(=O)O; dPip(4-aza) = O=C(O)[C@H]1CNCCN1; NMeNle = CCCC[C@H](NC)C(=O)O; dNle = CCCC[C@@H](N)C(=O)O; dPip = O=C(O)[C@H]1CCCCN1; hSer = N[C@@H](CCO)C(=O)O; NMeA = CN[C@@H](C)C(=O)O; Orn = NCCC[C@H](N)C(=O)O; Dab = NCC[C@H](N)C(=O)O; Dap = NC[C@H](N)C(=O)O; ξC = NC(CS)C(=O)O

Experimental findings from patent US10538555B2, “Macrocyclic inhibitors of the PD-1/PD-L1 and CD80(B7-1)/PD-L1 protein/protein interactions” (BRISTOL-MYERS SQUIBB COMPANY, priority 2014, dated 2020) are described below.

The target in this experiment is T1, Human PD-L1/PD-1 (Homo sapiens, UniProt Q9NZQ7).
T1 construct: TVMV protease cleavage site (C); made in house; host or cells: HEK293T cells
The experiment is described as follows: HTRF Human PD-L1/PD-1 binding assay (PD-1-Ig/PD-L1-His). The settings on record: PD-L1-His 10 nM, PD-1-Ig 20 nM. In short, it runs like this:
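Step 1: compound with PD-L1-His (10 nM final), 15 min. Step 2: PD-1-Ig (20 nM final), 15 min. Step 3: Eu-cryptate anti-Ig (1 nM) plus APC anti-His (20 nM), 30 min equilibration. Signal taken as 665 nm/620 nm ratio.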

The mark [1] stands for this setting: class symbol, read-out: HTRF Human PD-L1/PD-1 Binding Assay IC50 Range.
Setting [2] is: read-out: HTRF Human PD-L1/PD-1 Binding Assay IC50.

T1 sequence (Q9NZQ7 with tags, fused parts or gaps): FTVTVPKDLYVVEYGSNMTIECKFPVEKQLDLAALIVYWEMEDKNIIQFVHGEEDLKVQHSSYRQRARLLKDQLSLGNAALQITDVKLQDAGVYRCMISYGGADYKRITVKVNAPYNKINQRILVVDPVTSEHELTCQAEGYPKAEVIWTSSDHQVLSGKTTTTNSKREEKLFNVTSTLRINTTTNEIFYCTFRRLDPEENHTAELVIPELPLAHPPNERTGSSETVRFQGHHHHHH

Take `CCCC[C@H]1C(=O)N(C)[C@@H](CCCC)C(=O)N[C@@H](CCC(=O)O)C(=O)N[C@H](C(=O)NCC(N)=O)CSCC(=O)N[C@@H](Cc2ccc(OC)cc2)C(=O)N(C)[C@@H](C)C(=O)N[C@@H](CC(=O)O)C(=O)N2CCC[C@H]2C(=O)N[C@@H](CN)C(=O)N[C@@H](CCCCN)C(=O)N2C[C@H](O)C[C@H]2C(=O)N[C@@H](Cc2c[nH]c3ccccc23)C(=O)N[C@@H](CCN)C(=O)N[C@@H](Cc2c[nH]c3ccccc23)C(=O)N1C` [Example 7122] ({CH2CO}-Y(Me)[NMeA]DP[Dap]K[Hyp]W[Dab]W[NMeNle][NMeNle]ECG-NH2; thioether N-14): the IC50 under setting [1] was in the range of 1 to 9.9 nM.

For `CCCC[C@H]1NC(=O)[C@H](Cc2c[nH]c3ccccc23)NC(=O)[C@H](CO)NC(=O)[C@H](Cc2c[nH]c3ccccc23)NC(=O)[C@@H]2C[C@@H](O)CN2C(=O)[C@H](CCCN)NC(=O)[C@H](Cc2cnc[nH]2)NC(=O)[C@@H]2CCCN2C(=O)[C@H](CC(N)=O)NC(=O)[C@H](C)N(C)C(=O)[C@H](Cc2ccc(O)cc2)NC(=O)CSCC(C(=O)NCC(N)=O)NC(=O)[C@H](CCC(=O)O)NC(=O)[C@H](CCCC)N(C)C1=O` (some centres unmarked) [Example 10129] ({CH2CO}-Y[NMeA]NPH[Orn][Hyp]WSW[dNle][NMeNle]E[ξC]G-NH2; thioether N-14), the IC50 under setting [1] lay within 1000 to 10000 nM.

With `CCCC[C@H]1C(=O)N(C)[C@@H](CCCC)C(=O)N[C@@H](CCN)C(=O)NC(C(=O)NCC(N)=O)CSCC(=O)N[C@@H](Cc2ccc(O)cc2)C(=O)N(C)[C@@H](C)C(=O)N[C@@H](CC(N)=O)C(=O)N2CCC[C@H]2C(=O)N[C@@H](CC(N)=O)C(=O)N[C@@H](CC(C)C)C(=O)N2C[C@H](O)C[C@H]2C(=O)N[C@@H](Cc2c[nH]c3ccccc23)C(=O)N[C@@H](CO)C(=O)N[C@@H](Cc2c[nH]c3ccccc23)C(=O)N1C` (some centres unmarked) [Example 9164] ({CH2CO}-Y[NMeA]NPNL[Hyp]WSW[NMeNle][NMeNle][Dab][ξC]G-NH2; thioether N-14), the IC50 under setting [1] fell in the range of 1 to 9.9 nM.

Take `CCCC[C@H]1C(=O)N(C)[C@@H](C)C(=O)N[C@@H](CCCNC(=N)N)C(=O)NC(C(=O)NCC(N)=O)CSCC(=O)N[C@@H](Cc2ccc(O)cc2)C(=O)N(C)[C@@H](C)C(=O)N[C@@H](CC(N)=O)C(=O)N2CCC[C@H]2C(=O)N[C@@H](Cc2cnc[nH]2)C(=O)N[C@H](CO)C(=O)N2C[C@H](O)C[C@H]2C(=O)N[C@@H](Cc2c[nH]c3ccccc23)C(=O)N[C@@H](CO)C(=O)N[C@@H](Cc2c[nH]c3ccccc23)C(=O)N1C` (some centres unmarked) [Example 9119] ({CH2CO}-Y[NMeA]NPH[dS][Hyp]WSW[NMeNle][NMeA]R[ξC]G-NH2; thioether N-14): the IC50 under setting [1] was 10 to 99.9 nM.

Turning to `CCCC[C@H]1C(=O)N(C)[C@@H](CCCC)C(=O)N[C@@H](CCCN)C(=O)N[C@H](C(=O)NCC(N)=O)CSCC(=O)N[C@@H](Cc2ccc(OC)cc2)C(=O)N(C)[C@@H](C)C(=O)N[C@@H](CCN)C(=O)N2CCC[C@H]2C(=O)N[C@@H](Cc2cnc[nH]2)C(=O)N[C@@H](CCCCN)C(=O)N2C[C@H](O)C[C@H]2C(=O)N[C@@H](Cc2c[nH]c3ccccc23)C(=O)N[C@@H](CC(=O)O)C(=O)N[C@@H](Cc2c[nH]c3ccccc23)C(=O)N1C` [Example 7107] ({CH2CO}-Y(Me)[NMeA][Dab]PHK[Hyp]WDW[NMeNle][NMeNle][Orn]CG-NH2; thioether N-14), the IC50 under setting [2] amounted to 304 nM.

Consider `CCCC[C@H]1C(=O)N(C)[C@@H](CCCC)C(=O)N[C@@H](C)C(=O)N[C@H](C(=O)NCC(N)=O)CSCC(=O)N[C@@H](Cc2ccc(O)cc2)C(=O)N2CCCC[C@H]2C(=O)N[C@@H](CC(N)=O)C(=O)N2CCC[C@H]2C(=O)N[C@@H](Cc2cnc[nH]2)C(=O)N[C@@H](CCC(N)=O)C(=O)N2C[C@H](O)C[C@H]2C(=O)N[C@@H](Cc2c[nH]c3ccccc23)C(=O)N[C@@H](CO)C(=O)N[C@@H](Cc2c[nH]c3ccccc23)C(=O)N1C` [Example 1255], for which the IC50 under setting [2] came to 2.6 nM.

For `CCCC[C@H]1C(=O)N2C[C@H](O)C[C@@H]2C(=O)N[C@@H](CC(=O)O)C(=O)N[C@@H](C(C)C)C(=O)N(C)[C@@H](Cc2ccccc2)C(=O)N[C@@H](CCCN)C(=O)N2CCNC[C@@H]2C(=O)N[C@@H](Cc2c[nH]c3ccccc23)C(=O)N[C@@H](Cc2ccc(O)cc2)C(=O)N[C@@H](CCO)C(=O)N[C@H](C(=O)NCC(N)=O)CSCC(=O)N[C@@H](Cc2cc(F)c(F)c(F)c2)C(=O)N(C)[C@@H](Cc2ccccc2)C(=O)N1C` [Example 10169] ({CH2CO}-[Phe(3,4,5-F3)][NMeF][NMeNle][d(cisHyp)]DV[NMeF][Orn][dPip(4-aza)]WY[hSer]CG-NH2; thioether N-13), the IC50 under setting [1] was in the range of 1 to 9.9 nM.

For the molecule `CCCC[C@H]1C(=O)N2CCC[C@@H]2C(=O)N[C@@H](CC(=O)O)C(=O)N[C@@H](C(C)C)C(=O)N(C)[C@@H](Cc2ccccc2)C(=O)N[C@@H](CCC(=O)O)C(=O)N2C[C@H](O)C[C@@H]2C(=O)N[C@@H](Cc2c[nH]c3ccccc23)C(=O)N[C@@H](Cc2ccc(O)cc2)C(=O)N[C@@H](CC(C)C)C(=O)N[C@H](C(=O)NCC(N)=O)CSCC(=O)N[C@@H](Cc2cc(F)c(F)c(F)c2)C(=O)N(C)[C@@H](Cc2ccc(O)cc2)C(=O)N1C` [Example 10629] ({CH2CO}-[Phe(3,4,5-F3)][NMeY][NMeNle][dP]DV[NMeF]E[d(cisHyp)]WYLCG-NH2; thioether N-13), under setting [1], the IC50 was 10 to 99.9 nM.

As to `CCCC[C@H]1C(=O)N(C)[C@@H](CCCC)C(=O)N[C@@H](CC(C)C)C(=O)N[C@H](C(=O)NCC(N)=O)CSCC(=O)N[C@@H](Cc2ccc(O)cc2)C(=O)N2CCCC[C@@H]2C(=O)N[C@@H](CC(=O)O)C(=O)N2CCC[C@H]2C(=O)N[C@@H](Cc2cnc[nH]2)C(=O)N[C@@H](CCCCN)C(=O)N2C[C@H](O)C[C@H]2C(=O)N[C@@H](Cc2c[nH]c3ccccc23)C(=O)N[C@@H](CCCCN)C(=O)N[C@@H](Cc2cn(CC(=O)O)c3ccccc23)C(=O)N1C` [Example 1296] ({CH2CO}-Y[dPip]DPHK[Hyp]WK[Trp(1-CH2COOH)][NMeNle][NMeNle]LCG-NH2; thioether N-14), under setting [1], the IC50 lay in the range of 1 to 9.9 nM.

As for `CCCC[C@H]1C(=O)N(C)[C@@H](C)C(=O)N[C@@H](CCCNC(=N)N)C(=O)NC(C(=O)NCC(N)=O)CSCC(=O)N[C@@H](Cc2ccc(O)cc2)C(=O)N(C)[C@@H](C)C(=O)N[C@@H](CC(N)=O)C(=O)N2CCC[C@H]2C(=O)N[C@@H](CC(N)=O)C(=O)N[C@@H](CC(C)C)C(=O)N2C[C@H](O)C[C@H]2C(=O)N[C@@H](Cc2c[nH]c3ccccc23)C(=O)N[C@@H](CO)C(=O)N[C@@H](Cc2csc3ccccc23)C(=O)N1C` (some centres unmarked) [Example 9139] ({CH2CO}-Y[NMeA]NPNL[Hyp]WS[Bta][NMeNle][NMeA]R[ξC]G-NH2; thioether N-14), under setting [1], the IC50 fell in the range of 1 to 9.9 nM.

Take `CCCC[C@H]1C(=O)N(C)[C@@H](CCCC)C(=O)N[C@@H](CCCN)C(=O)N[C@H](C(=O)NCC(N)=O)CSCC(=O)N[C@@H](Cc2ccc(O)cc2)C(=O)N2CCOCC2C(=O)N[C@@H](CC(N)=O)C(=O)N2CCC[C@H]2C(=O)N[C@@H](Cc2c[nH]cn2)C(=O)N[C@@H](CC(C)C)C(=O)N2C[C@H](O)C[C@H]2C(=O)N[C@@H](Cc2c[nH]c3ccccc23)C(=O)N[C@@H](CO)C(=O)N[C@@H](Cc2c[nH]c3ccccc23)C(=O)N1C` (some centres unmarked) [Example 1532]: the IC50 under setting [1] fell in the range of 1 to 9.9 nM.
